Assay results reported in patent publication US20250017952A1, “ANTIFUNGAL COMPOUND, COMPOSITION AND USES THEREOF” (SASTRA DEEMED UNIVERSITY, priority 2021, published 2025).
Several values for one entry are separate records, joined by “and”; a condition that tells them apart may be missing. Equal entries are not always repeated. Entries after “also recorded” stand apart in the source; their conditions may differ.

Assays:
[1] = system: C. albicans planktonic cells; assay: Planktonic growth, OD at 595 nm; type: cell-based, Candida albicans; details: 100 μM-0.47 pM tested
Protocol: (§1) FIG. 3 illustrates antifungal and antibiofilm evaluation against C. albicans at varying concentrations: The effect of the Cangrelor on planktonic cells was determined by measuring the OD at 595 nm. A wide range of concentrations ranging from 100 μM-0.47 pM were considered for evaluation. Biofilm inhibitory effects were determined by measuring the biofilm biomass using the Crystal Violet (CV) assay. The dose-response curves were plotted by fitting the inhibition data using a 4-parameter logistic equation. Cangrelor inhibited biofilms at a minimum concentration of 120 pM

[2] = system: C. albicans SC5314 biofilm; assay: SEM analysis of biofilm; type: cell-based, Candida albicans
Protocol: FIG. 5 illustrates Cangrelor abolish C. albicans SC5314 biofilm. An overnight culture of C. albicans was grown overnight at 30° C. in YPD liquid media. C. albicans cells (1.5×10^7 cells/ml) were seeded on the glass slides in the presence or absence of the ALS-3 drug-like chemotype, Cangrelor in YPD and incubated at 37° C. for 24 h. […] Statistical significance was determined using the unpaired Student's t test (P<0.0001).

[3] = system: Candida albicans on T24 bladder epithelial cells; assay: Adhesion and invasion of C. albicans in monolayer T24 bladder epithelial cells; type: cell-based
Text: FIG. 10 illustrates the microscopic images of the monolayer T24 bladder epithelial cells infected with Candida albicans with and without Cangrelor treatment. […] The yeast cells (circled in white) were maintained upon the treatment and thereby couldn't adhere and invade the epithelial cells.

[4] = system: C. albicans biofilm, hyphal and virulence genes; assay: qRTPCR of biofilm, hyphal and virulence genes; type: cell-based, Candida albicans
Protocol: FIG. 8 illustrates the qRTPCR analysis of biofilm, hyphal and virulence genes in C. albicans biofilms treated with Cangrelor using 18srRNA as the housekeeping gene. Briefly, after 24 h incubation, planktonic cells were removed, and biofilm cells were collected, and RNA was extracted for the treated and untreated groups. […] The data was obtained in triplicates and analysis was performed by the 2^−ΔΔCt method.

[5] = system: C. albicans SC5314 biofilm; assay: CLSM analysis of biofilm with COMSTAT quantification; type: cell-based, Candida albicans; details: for live/dead fluorescence of cells in CLSM: green = live, red = dead
Text: FIG. 4a illustrates CLSM analyses of biofilm inhibitory effects of Cangrelor against C. albicans SC5314. […] The presence of red fluorescence in fluconazole treatment confirms its fungicidal effect. The COMSTAT analysis was done to quantify the biofilm coverage, average thickness, and biovolume from Z-stacks obtained from at least 5 regions of the glass slides, using a confocal laser scanning microscope (Olympus FLUOVIEW, FV1000) with a 40× objective lens (FIG. 4b).

[6] = system: Candida albicans SC5314, ATCC90028, clinical isolate BF1; assay: Germ tube / filamentation inhibition, phase contrast; type: cell-based; details: for germ tube / hyphal morphogenesis, time-dependent: till 6 h, three strains
Protocol: FIG. 6 illustrates the phase contrast images of germ tube inhibition of Candida albicans for the three strains by cangrelor in a time-dependent manner till 6 h. The untreated C. albicans show the hyphal development from the 2nd hour, where the yeast cells adhere, and at the 6 h, the hyphal is elongated and branched.
FIG. 7 illustrates the phase contrast images of filamentation inhibition of Candida albicans by cangrelor after 24 h of inhibition.
A time-dependent mapping of the hyphal development was done until 6 h upon Cangrelor treatment and compared to the untreated control for the three strains of C. albicans, including the standard strains-SC5314 and ATCC90028, and clinical isolate, BF1. […] The morphogenesis switch inhibition is essential as the primary virulence characteristic of C. albicans is hyphal formation. The hyphal form is necessary for biofilm formation and polymicrobial interaction to invade the host cell and overcome the immune response.

[7] = system: C. albicans virulence genes (biofilm, hyphae, drug resistance); assay: RNAseq differential expression analysis; type: cell-based, Candida albicans; details: treated vs untreated
Text: A cutoff absolute value of log fold change >1 (2-fold change) was used. Adjusted P value <0.05 (c) Venn diagram illustrating the degree of overlap between various virulence genes (Biofilm Inducing (BI); Hyphal Inducing (HI); and Drug Resistance (DR) in C. albicans under drug (Cangrelor) treated and untreated conditions.
TRY6, FYV5 (Pentland et al., 2018; Murillo et al., 2005; Nett et al., 2009a), drug-resistance genes MAK1 and RPP1 (Nett et al., 2009b; Levitin & Whiteway, 2007a) and upregulation of the genes, GAL and MAF1 that negatively regulates (repressors) the biofilm phenotype in C. albicans (Nobile et al., 2012). […] In Candida albicans, the potential shift from yeast to hypha is a route cause to host invasion and symbiotic relationship with other pathogens, where the data was significant to show downregulation of hyphal-specific genes such as ECE1, RAS, NDT80 (Moyes et al., 2016). […] This observation was very crucial to the inventor's claim that the compound, Cangrelor could potentiate the anti-fungal susceptibility (Moyes et al., 2016; Maglott et al., 2007b; Levitin & Whiteway, 2007b; Chaudhuri et al., 2011; Singh et al., 2011). Taken together, Cangrelor systematically downregulate the virulence features to potentially curb the pathogenesis of C. albicans.

[8] = system: C. albicans biofilm; assay: Biofilm inhibition, Crystal Violet (CV) assay; type: cell-based, Candida albicans; details: crystal violet biofilm biomass
Protocol: as §1

CSCCNc1nc(SCCC(F)(F)F)nc2c1ncn2[C@@H]1O[C@H](COP(=O)(O)OP(=O)(O)C(Cl)(Cl)P(=O)(O)O)[C@@H](O)[C@H]1O [Cangrelor]
growth of C. albicans (planktonic) [1]: without affecting growth; also recorded: not inhibited | filamentation in SEM ([2]; 120 pM vs untreated control): abolished filamentation | number of cells in SEM ([2]; 120 pM, 24 h, YPD, untreated more than 1200 cells): < 56 cells and < 60 cells | adherence and invasion of epithelial cells [3]: reducing adherence and invasion | hyphal morphogenesis on epithelial cells [3]: inhibited hyphal morphogenesis | expression of adhesion and invasion genes ([4]; 240 pM, 24 h biofilm cells): downregulated | ECE1 gene expression ([4]; qRTPCR): downregulation | ERG11 gene expression ([4]; qRTPCR): downregulated | PLB1 expression downregulation ([4]; qRTPCR, 2^−ΔΔCt): ~2 log fold | expression of transcriptional regulators of biofilm and hyphal genes, adhesin and hyphal specific protein ([4]; qRTPCR, 18srRNA housekeeping): downregulated | biofilm structure in CLSM images ([5]; C. albicans SC5314): no biofilm formation | roughness coefficient ([5]; COMSTAT, control 1.2): 1.91 | diffusion distance ([5]; COMSTAT, control 8.73 μm): 0.18 μm | average biofilm thickness ([5]; COMSTAT, control 28.64 μm): 0.5 μm | biofilm biomass ([5]; COMSTAT, untreated 25.96 μm): significant reduction | live/dead fluorescence of cells in CLSM [5]: live cells | filamentation after 24 h ([6]; 24 h): maintained the yeast form | germ tube / hyphal morphogenesis, time-dependent [6]: inhibits the hyphal morphogenesis | germ tube / hyphal morphogenesis, time-dependent ([6]; listed as cangrelor): did not switch to the hyphal form | number of biofilm inducing genes downregulated [7]: more than 90 genes | IC50 ([8]; Candida albicans, read-out: BIC50 (50% Biofilm Inhibition Concentration)): 120 pM | concentration at which biofilms were inhibited (minimum / very low concentration) [8]: 120 pM

OC(Cn1cncn1)(Cn1cncn1)c1ccc(F)cc1F [fluconazole]
live/dead fluorescence of cells in CLSM [5]: dead cells
